29 molecules from patent US9682980B2, “Positive allosteric modulators of mGluR2” (BRISTOL-MYERS SQUIBB COMPANY, priority 2012, dated 2017) can be followed below.

Molecules are shown by their SMILES.

Broadly, the EC50 is the concentration that produces a half-maximal response. A higher EC50 goes with lower potency in that assay.

For the experiment, the target named is human mGluR2 (Homo sapiens (Human), UniProt Q14416). Briefly: MGluR2 cAMP assay. The class given is cell-based. The note with it: HEK293 cells clonally expressing human mGluR2, 1 μM forskolin, 1 μM LY-341495. The protocol: Clonally expressed human mGluR2 in HEK293 background was glutamate starved overnight in media without glutamine (GIBCO MEM 12360), containing 10% FBS, 1% penicillin streptomycin.
human mGluR2, sequence (Q14416 19-872): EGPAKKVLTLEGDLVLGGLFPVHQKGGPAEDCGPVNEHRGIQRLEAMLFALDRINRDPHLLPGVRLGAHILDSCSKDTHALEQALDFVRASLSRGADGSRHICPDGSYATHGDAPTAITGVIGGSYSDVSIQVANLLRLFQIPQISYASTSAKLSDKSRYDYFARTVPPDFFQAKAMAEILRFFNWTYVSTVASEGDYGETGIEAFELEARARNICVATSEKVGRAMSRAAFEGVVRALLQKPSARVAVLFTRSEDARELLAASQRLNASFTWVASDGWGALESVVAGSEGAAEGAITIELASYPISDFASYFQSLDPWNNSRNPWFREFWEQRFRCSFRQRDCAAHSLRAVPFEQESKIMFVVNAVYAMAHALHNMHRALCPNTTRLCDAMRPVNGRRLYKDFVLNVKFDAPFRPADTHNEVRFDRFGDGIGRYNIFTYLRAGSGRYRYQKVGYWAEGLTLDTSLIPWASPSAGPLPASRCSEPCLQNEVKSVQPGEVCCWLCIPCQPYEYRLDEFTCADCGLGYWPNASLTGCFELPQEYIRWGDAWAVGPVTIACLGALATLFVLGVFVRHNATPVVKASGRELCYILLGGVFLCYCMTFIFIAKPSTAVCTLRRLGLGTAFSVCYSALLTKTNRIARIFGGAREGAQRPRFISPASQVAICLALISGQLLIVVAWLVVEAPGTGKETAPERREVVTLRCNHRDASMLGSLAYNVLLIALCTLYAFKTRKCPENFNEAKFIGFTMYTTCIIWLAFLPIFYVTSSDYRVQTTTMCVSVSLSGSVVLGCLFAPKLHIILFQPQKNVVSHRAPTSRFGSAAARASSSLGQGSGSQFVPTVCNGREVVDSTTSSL
On the day of the assay, media was removed, cells washed with PBS, cells harvested and pelleted by centrifugation. Cell pellets were resuspended in stimulation buffer without forskolin and counted. A solution of 1.25×10^6 cells/ml was prepared and dispensed to plates using a Combi liquid handler (Thermo). A standard curve was created using a top concentration of cAMP of 1 μM in the stimulation buffer, 1:3 dilutions over 14 points in the absence of cells. Plates were read by time-resolved fluorescence at […] and a ratio was calculated via in house software, (665 nM/618 nM)*10^4. In house software converted the fluorescence value ratios to units of cAMP concentration, which is then used to calculate % inhibition for each test compound.
Compounds were added to white, standard volume 384 non-binding surface plates (Corning 3574). Cells were resuspended in stimulation buffer consisting of Hanks Balanced Salt Solution (14175-095) pH 7.0, 20 mM HEPES, 2.0 mM CaCl2, 5.0 mM MgCl2, and 1 mM IBMX (Sigma 15879), 1 μM forskolin, and 1 μM LY-341495, for 30 minutes. Buffer without forskolin was used as a negative control. Solutions of D2 and cryptate detection reagents from the CISBIO dynamic cAMP kit (62AM4PEJ) were diluted 1:40 in lysis buffer. Lysis buffer consisted of 50 mM Phosphate Buffer pH 7.0, 800 mM Potassium Fluoride, 0.2% BSA, and 1.0% Triton. Assay reaction was terminated by addition of detection reagents in lysis buffer. One hour later, plates were read on a PE Viewlux. Data was extracted, and concentration response curves generated by fitting the data to a standard 4 parameter logistic equation from which EC50 values were determined See table 1: A: <10 nM; B: 10-100 nM; C: 100-1000 nM; D: 1000-10000 nM.
(Changes in cAMP serve as a functional read-out for many G protein-coupled receptors.)
Regarding `COC(=O)c1ccccc1C1CCN(c2cnn3c(CC4CC4)nnc3c2Cl)CC1` [Example 31, Methyl 2-(1-(8-chloro-3-(cyclopropylmethyl)-[1,2,4]triazolo[4,3-b]pyridazin-7-yl)piperidin-4-yl)benzoate], the midpoint of the response, the EC50, lay at 38 nM. For `COC(=O)c1ccccc1C1CCN(c2cnn3c(CC(F)(F)F)nnc3c2Cl)CC1` [Example 32, Methyl 2-(1-(8-chloro-3-(2,2,2-trifluoroethyl)-[1,2,4]triazolo[4,3-b]pyridazin-7-yl)piperidin-4-yl)benzoate], a half-maximal effect (EC50) was put at 15 nM. `Clc1c(NCC2Cc3ccccc3C2)cnn2c(CC3CC3)nnc12` [Example 33, 8-Chloro-3-(cyclopropylmethyl)-N-((2,3-dihydro-1H-inden-2-yl)methyl)-[1,2,4]triazolo[4,3-b]pyridazin-7-amine] registered a concentration for a half-maximal effect (EC50) of 21 nM.

The molecule `COc1cccc(F)c1C1CCN(c2cc3nnc(CC4CC4)n3cn2)CC1` [Example 34, 3-(Cyclopropylmethyl)-7-(4-(2-fluoro-6-methoxyphenyl)piperidin-1-yl)-[1,2,4]triazolo[4,3-c]pyrimidine] gave an EC50 of 649 nM. The molecule `COc1ccc(OC)c(C2CCN(c3cnn4c(CC5CC5)nnc4c3Cl)CC2)c1` [Example 35, 8-Chloro-3-(cyclopropylmethyl)-7-(4-(2,5-dimethoxyphenyl)piperidin-1-yl)-[1,2,4]triazolo[4,3-b]pyridazine] gave an EC50 of 6 nM. The figure for `COc1ccc(OC)c(C2CCN(c3cnn4c(CC(F)(F)F)nnc4c3Cl)CC2)c1` [Example 36, 8-Chloro-7-(4-(2,5-dimethoxyphenyl)piperidin-1-yl)-3-(2,2,2-trifluoroethyl)-[1,2,4]triazolo[4,3-b]pyridazine] is 7 nM; for `COc1ccc(C2CCN(c3cnn4c(CC5CC5)nnc4c3Cl)CC2)c(OC)c1` [Example 37, 8-Chloro-3-(cyclopropylmethyl)-7-(4-(2,4-dimethoxyphenyl)piperidin-1-yl)-[1,2,4]triazolo[4,3-b]pyridazine] it is 9 nM; for `COc1ccc(C2CCN(c3cnn4c(CC(F)(F)F)nnc4c3Cl)CC2)c(OC)c1` [Example 38, 8-Chloro-7-(4-(2,4-dimethoxyphenyl)piperidin-1-yl)-3-(2,2,2-trifluoroethyl)-[1,2,4]triazolo[4,3-b]pyridazine] it is 5 nM. On to `COc1cccc(F)c1C1CC1CNc1cnn2c(CC3CC3)nnc2c1Cl` (centres unmarked) [Example 39, 8-Chloro-3-(cyclopropylmethyl)-N-((2-(2-fluoro-6-methoxyphenyl)cyclopropyl)methyl)-[1,2,4]triazolo[4,3-b]pyridazin-7-amine], for which the half-maximal effective concentration (EC50) stood at 28 nM. Regarding `COc1cccc(F)c1C1CC1CNc1cnn2c(CC(F)(F)F)nnc2c1Cl` (centres unmarked) [Example 40, 8-Chloro-N-((2-(2-fluoro-6-methoxyphenyl)cyclopropyl)methyl)-3-(2,2,2-trifluoroethyl)-[1,2,4]triazolo[4,3-b]pyridazin-7-amine], the EC50 worked out at 31 nM. On to `Clc1c(N2CCC(c3ccncc3)CC2)cnn2c(CC3CC3)nnc12` [Example 41, 8-Chloro-3-(cyclopropylmethyl)-7-(4-(pyridin-4-yl)piperidin-1-yl)-[1,2,4]triazolo[4,3-b]pyridazine], for which the EC50 was found to be 275 nM.

In turn, `COc1cc(OC)nc(C2CCN(c3cnn4c(CC5CC5)nnc4c3Cl)CC2)n1` [Example 42, 8-Chloro-3-(cyclopropylmethyl)-7-(4-(4,6-dimethoxypyrimidin-2-yl)piperidin-1-yl)-[1,2,4]triazolo[4,3-b]pyridazine] gave an EC50 of 11 nM.

`COc1cc(OC)nc(C2CCN(c3cnn4c(CC(F)(F)F)nnc4c3Cl)CC2)n1` [Example 43, 8-Chloro-7-(4-(4,6-dimethoxypyrimidin-2-yl)piperidin-1-yl)-3-(2,2,2-trifluoroethyl)-[1,2,4]triazolo[4,3-b]pyridazine] registered an EC50 of 10 nM. Molecule `Clc1ccccc1C1CCN(c2cnn3c(CC4CC4)nnc3c2Cl)CC1` [Example 44, 8-Chloro-7-(4-(2-chlorophenyl)piperidin-1-yl)-3-(cyclopropylmethyl)-[1,2,4]triazolo[4,3-b]pyridazine] yielded an EC50 of 45 nM. The molecule `FC(F)(F)Cc1nnc2c(Cl)c(N3CCC(c4ccccc4Cl)CC3)cnn12` [Example 45, 8-Chloro-7-(4-(2-chlorophenyl)piperidin-1-yl)-3-(2,2,2-trifluoroethyl)-[1,2,4]triazolo[4,3-b]pyridazine] registered an EC50 of 48 nM. Molecule `Clc1cccc(C2CCN(c3cnn4c(CC5CC5)nnc4c3Cl)CC2)c1Cl` [Example 46, 8-Chloro-3-(cyclopropylmethyl)-7-(4-(2,3-dichlorophenyl)piperidin-1-yl)-[1,2,4]triazolo[4,3-b]pyridazine] showed an EC50 of 154 nM. As to `Clc1cc(Cl)cc(C2CCN(c3cnn4c(CC5CC5)nnc4c3Cl)CC2)c1` [Example 47, 8-Chloro-3-(cyclopropylmethyl)-7-(4-(3,5-dichlorophenyl)piperidin-1-yl)-[1,2,4]triazolo[4,3-b]pyridazine], the EC50 came out at 144 nM. With `FC(F)(F)Cc1nnc2c(Cl)c(N3CCC(c4cc(Cl)cc(Cl)c4)CC3)cnn12` [Example 48, 8-Chloro-7-(4-(3,5-dichlorophenyl)piperidin-1-yl)-3-(2,2,2-trifluoroethyl)-[1,2,4]triazolo[4,3-b]pyridazine], a half-maximal effect (EC50) was put at 263 nM.

The molecule `CCN(CC1CC1c1ccc(F)cc1)c1cnn2c(CC3CC3)nnc2c1Cl` (centres unmarked) [Example 49, 8-Chloro-3-(cyclopropylmethyl)-N-ethyl-N-((2-(4-fluorophenyl)cyclopropyl)methyl)-[1,2,4]triazolo[4,3-b]pyridazin-7-amine] came in with a 50% effective concentration (EC50) of 425 nM. For the molecule `Fc1ccc(F)c(C2CCN(c3cnn4c(CC5CC5)nnc4c3Cl)CC2)c1OC(F)F` [Example 50, 8-Chloro-3-(cyclopropylmethyl)-7-(4-(2-(difluoromethoxy)-3,6-difluorophenyl)piperidin-1-yl)-[1,2,4]triazolo[4,3-b]pyridazine], the EC50 was found to be 2 nM. `Fc1ccc(F)c(C2CCN(c3cnn4c(CC(F)(F)F)nnc4c3Cl)CC2)c1OC(F)F` [Example 51, 8-Chloro-7-(4-(2-(difluoromethoxy)-3,6-difluorophenyl)piperidin-1-yl)-3-(2,2,2-trifluoroethyl)-[1,2,4]triazolo[4,3-b]pyridazine] gave an EC50 of 3 nM. Consider `Fc1cc(OC(F)F)c(C2CCN(c3cnn4c(CC5CC5)nnc4c3Cl)CC2)cc1F` [Example 52, 8-Chloro-3-(cyclopropylmethyl)-7-(4-(2-(difluoromethoxy)-4,5-difluorophenyl)piperidin-1-yl)-[1,2,4]triazolo[4,3-b]pyridazine], for which the EC50 amounted to 8 nM. With `Fc1cc(OC(F)F)c(C2CCN(c3cnn4c(CC(F)(F)F)nnc4c3Cl)CC2)cc1F` [Example 53, 8-Chloro-7-(4-(2-(difluoromethoxy)-4,5-difluorophenyl)piperidin-1-yl)-3-(2,2,2-trifluoroethyl)-[1,2,4]triazolo[4,3-b]pyridazine], the EC50 is 6 nM. `Fc1cc(F)c(OC(F)F)c(C2CCN(c3cnn4c(CC5CC5)nnc4c3Cl)CC2)c1` [Example 54, 8-Chloro-3-(cyclopropylmethyl)-7-(4-(2-(difluoromethoxy)-3,5-difluorophenyl)piperidin-1-yl)-[1,2,4]triazolo[4,3-b]pyridazine]: the EC50 worked out at 10 nM.

`Fc1cc(F)c(OC(F)F)c(C2CCN(c3cnn4c(CC(F)(F)F)nnc4c3Cl)CC2)c1` [Example 55, 8-Chloro-7-(4-(2-(difluoromethoxy)-3,5-difluorophenyl)piperidin-1-yl)-3-(2,2,2-trifluoroethyl)-[1,2,4]triazolo[4,3-b]pyridazine] displayed an EC50 of 21 nM.

With `FC(F)(F)Cc1nnc2c(Cl)c(N3CCC(c4ccccc4)CC3)cnn12` [Example 56, 8-Chloro-7-(4-phenylpiperidin-1-yl)-3-(2,2,2-trifluoroethyl)-[1,2,4]triazolo[4,3-b]pyridazine], the EC50 was found to be 62 nM. The figure for `Clc1c(N2CCC(c3ccccc3)CC2)cnn2c(Cc3ccccc3)nnc12` [Example 57, 3-Benzyl-8-chloro-7-(4-phenylpiperidin-1-yl)-[1,2,4]triazolo[4,3-b]pyridazine] is 217 nM; for `CC(C)Cc1nnc2c(Cl)c(N3CCC(c4ccccc4)CC3)cnn12` [Example 58, 8-Chloro-3-isobutyl-7-(4-phenylpiperidin-1-yl)-[1,2,4]triazolo[4,3-b]pyridazine] it is 201 nM; for `Clc1c(N2CCC(c3ccccc3)CC2)cnn2c(CCC3CC3)nnc12` [Example 59, 8-Chloro-3-(2-cyclopropylethyl)-7-(4-phenylpiperidin-1-yl)-[1,2,4]triazolo[4,3-b]pyridazine] it is 121 nM.
